# Values quoted from earlier work in US8097593B1, “Lipid A and other carbohydrate ligand analogs” (Oncothyreon Inc., priority 2002, dated 2012).
# Assays:
# [1] = not given; remark: listed apart in the source
Compound,experimental log P,"immunostimulating activities, in words ([1]; compared with diphosphoryl Lipid-A (and endotoxin itself))",times less potent in eliciting toxic and pyrogenic responses ([1]; on a molar basis)
"CC(C)(C)C [CC(C)(C)C, 2,2-dimethylpropane]",3.11,,
monophosphoryl Lipid-A,,comparable,1000 times
